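Dose response: 5 concentrations. Exposure: 48 h. Format: 96-well plates. Endpoint: linear interpolation; highest concentration if not reached. At the GI50, growth is halved. TGI denotes the concentration required for complete inhibition of growth.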 Where a SMILES comes first, the peptide text is derived from it. Bridges are numbered along the chain shown (N, C = ends). Roman numbers before positions name the chains, in order. [ ]: non-standard residue; d: D form. The star is where a group is joined. Quinoxaline2carbonyl = O=C(c1cnc2ccccc2n1)*; NMeV = CN[CH](C(=O)O)C(C)C; NMeC = CN[CH](CS)C(=O)O
How the values were obtained:
Test in all cases: NCI-60 cell line screen, 48 h
SNB-75 CNS = test system: SNB-75 CNS
UO-31 renal = test system: UO-31 renal
EKVX NSCLC = test system: EKVX NSCLC
NCI-H226 lung = test system: NCI-H226 lung
CCRF-CEM leukemia = test system: CCRF-CEM leukemia
SF-539 CNS = test system: SF-539 CNS
T-47D breast = test system: T-47D breast
BT-549 breast = test system: BT-549 breast
M14 melanoma = test system: M14 melanoma
SR leukemia = test system: SR leukemia

Row | Structure (SMILES) | GI50 (SNB-75 CNS) [µM] | TGI (SNB-75 CNS) [µM] | GI50 (UO-31 renal) [µM] | TGI (UO-31 renal) [µM] | GI50 (EKVX NSCLC) [µM] | TGI (EKVX NSCLC) [µM] | GI50 (NCI-H226 lung) [µM] | TGI (NCI-H226 lung) [µM] | GI50 (CCRF-CEM leukemia) [µM] | TGI (CCRF-CEM leukemia) [µM] | GI50 (SF-539 CNS) [µM] | TGI (SF-539 CNS) [µM] | GI50 (T-47D breast) [µM] | TGI (T-47D breast) [µM] | GI50 (BT-549 breast) [µM] | TGI (BT-549 breast) [µM] | GI50 (M14 melanoma) [µM] | TGI (M14 melanoma) [µM] | TGI (SR leukemia) [µM]
1 | CCCCCn1sc(=O)n(Cc2ccc(CNC(=O)OCc3ccc4cccc(O)c4n3)cc2)c1=O | 1.14 | 4.52 | 1.07 | 2.25 | 2.01 | 5.41 | 1.47 | 3.31 | 0.489 | > 100 | 1.48 | 2.8 | 1.79 | 4.52 | 1.44 | 3.65 | 1.33 | 3.12 | –
2 | CCCCCCCCCCCCCP(=O)(O)NCC(N)=O | – | > 100 | – | 90.4 | – | > 100 | – | > 100 | – | > 100 | – | > 100 | – | – | – | – | – | > 100 | –
3 | Fc1cccc(C2SCc3nc4ccccc4n32)c1F (stereo not given) | – | > 100 | – | > 100 | – | > 100 | – | > 100 | – | > 100 | – | > 100 | – | – | – | – | – | > 100 | > 100
4 | O=P1(Oc2ccccc2)C(c2ccccc2)C(c2ccccc2)=NN1c1ccccc1 (stereo not given) | – | > 100 | – | – | – | > 100 | – | 55 | – | > 100 | – | 35.9 | – | – | – | – | – | 39.6 | –
5 | CC(C)c1c2[nH]c3ccccc3c2c(C(C)C)c2[nH]c3ccccc3c12 | – | > 100 | – | > 100 | – | > 100 | – | > 82.8 | – | > 100 | – | > 100 | – | – | – | – | – | > 100 | > 100
6 | CCO/C=C1\N=C(c2ccccc2Br)OC1=O | – | > 100 | – | > 100 | – | > 100 | – | > 100 | – | > 100 | – | > 100 | – | – | – | – | – | > 100 | –
7 | CN(C)c1ccc(N=Nc2ccncc2)cc1 | – | – | – | > 100 | – | > 100 | – | > 100 | – | > 100 | – | > 100 | – | > 100 | – | > 100 | – | > 100 | –
8 | COc1ccc(/C=N/NC(=O)Cn2c(-c3ccc(S(C)(=O)=O)cc3)nc3cc(Cl)ccc32)cc1 | 1.05 | > 50 | 3.45 | > 50 | 2.51 | > 50 | 1.63 | > 50 | 0.318 | > 50 | 0.855 | 3.35 | 3.22 | > 50 | 2.74 | 48.5 | 0.505 | > 50 | –
9 | CN(C)CCC(/C=C/c1ccccc1)=N\Nc1ccc(Cl)cc1Cl | – | 18.8 | – | 6.5 | – | 31.1 | – | – | – | 25.8 | – | 29 | – | – | – | – | – | 26.6 | 23.9
10 | CC1NC(=O)C(NC(=O)c2cnc3ccccc3n2)COC(=O)C(C(C)C)N(C)C(=O)C2CSSCC(C(=O)N(C)C(C(C)C)C(=O)OCC(NC(=O)c3cnc4ccccc4n3)C(=O)NC(C)C(=O)N2C)N(C)C1=O (stereo not given) (I: Quinoxaline2carbonyl-SA[NMeC][NMeV] / II: Quinoxaline2carbonyl-SA[NMeC][NMeV]; ester I:1-II:C, I:C-II:1; disulfide I:3-II:3; configuration not given here) | – | < 0.01 | – | – | – | – | – | 0.0237 | – | 0.229 | – | – | – | – | – | < 0.01 | – | < 0.01 | –
11 | Cc1cc(N(CCC#N)CCC#N)ccc1/C=C1/N=C(c2ccccc2)N(N)C1=O | – | 64.9 | – | > 100 | – | > 100 | – | > 100 | – | > 100 | – | > 100 | – | – | – | – | – | > 100 | –
12 | CC1(C)C2CCC13CS(=O)(=O)N1O[C@]13C(=O)O2 (stereo not given in full) | – | > 100 | – | > 100 | – | > 100 | – | > 100 | – | – | – | > 100 | – | – | – | – | – | – | > 100
